What was measured:
[1] = system: hGLP1R^A316T-SmBiT versus hGLP1R^WT-SmBiT; assay: β-arrestin 2 recruitment by NanoBiT complementation; assay type: cell-based, rat
Method: For mini-Gs recruitment, INS-1 832/3 Glp1r^−/− cells were seeded in 6-cm dishes and transiently cotransfected with 1.7 μg each of hGLP1R^WT or ^A316T-SmBiT and LgBiT-mini-Gs constructs for 24 hours. Cells were then detached, resuspended in Hanks’ balanced salt solution (HBSS) containing NanoGlo Live Cell Reagent (1:20; Promega) with furimazine, and seeded onto white 96-well half-area plates. Baseline luminescence was immediately recorded over 8 min at 37°C in a Flexstation 3 plate reader (Molecular Devices) and for a further 30 min after GLP-1RA addition at serial doses up to 100 nM. Readings were taken every 30 s and normalized to average well baseline, and average vehicle-induced signal was subtracted to establish the agonist-induced effect. To measure β-arrestin 2 recruitment, cells were processed as above with slight modifications: INS-1 832/3 Glp1r^−/− cells were cotransfected with 1.77 μg each of hGLP1R^WT or ^A316T-SmBiT and LgBiT–β-arrestin 2 plasmids for 24 hours, and GLP-1RAs were added at serial doses up to 1 μM. AUCs were calculated for each agonist concentration and fitted to log(agonist) versus response four-parameter curves using GraphPad Prism 10.1.2, with errors propagated for mini-Gs over β-arrestin 2 recruitment bias calculations.

[2] = system: SNAP/FLAG-hGLP1R^A316T versus ^WT; assay: GLP-1R ubiquitination assay; assay type: cell-based, rat; conditions: 100 nM, 10 min; n = 5; Fig. 8K
Method: INS-1 832/3 Glp1r-/- SNAP/FLAG-hGLP1RWT or A316T cells plated onto 6- cm dishes were stimulated ± 100 nM exendin-4 for 10 min, washed with PBS and osmotically lysed in lysis buffer (50 mM tris-HCl, pH 7.4, 150 mM NaCl, 1% Triton X-100, 1 mM EDTA) with 1% protease inhibitor (Roche) and 1% phosphatase inhibitor cocktail (Sigma-Aldrich) at 4°C. Cell lysates were centrifuged at 12,000 g and 4°C for 10 min prior to the addition of 40 μL anti- FLAG M2 beads (A2220, Sigma-Aldrich) and overnight rotating incubation at 4°C to increase FLAG-tag binding efficiency. Samples were then centrifuged at 5,000 g for 30 s, bead pellets washed 3x in 500 μL wash buffer (50 mM Tris-HCl, 150 mM NaCl, pH 7.4), and proteins eluted with 2x urea buffer at 37°C for 10 min before Western blot analysis with anti-ubiquitin antibody (1:1,000; sc-8017, Santa Cruz Biotechnology) and sheep anti-mouse HRP secondary (1:5,000; ab6808, Abcam) followed by stripping and reblotting with anti-SNAP antibody as above to assess immunoprecipitated receptor per sample. GLP-1R ubiquitination was calculated from ubiquitin over SNAP band intensity levels under the different conditions tested using Fiji.
LC- MS/MS G LP-1R interactome analysis
INS-1 832/3 Glp1r-/- SNAP/FLAG-hGLP1RWT or A316T cells were plated onto 6-cm dishes and stimulated with vehicle or 100 nM GLP-1RA for 5 min as previously described (63). […]

Substance	Agonist-induced recruitment of β-arrestin 2, A316T versus WT, log(Emax/EC50) ([1]; serial doses up to 1 μM, n = 5, Fig. 7M)	β-arrestin 2 over Gαs signaling bias, A316T versus WT ([1]; Δlog(Emax/EC50) βarr2 − mini-Gs, Fig. 7N)	Effect of agonist stimulation on WT GLP-1R ubiquitination level [2]	Effect of agonist stimulation on ubiquitination of the A316T receptor [2]
exendin-F1	near-significant reduction	significant shift toward Gαs recruitment		
exendin-4			did not affect	significantly increased
